The record followed here is US20220267349A1, “HETEROCYCLIC COMPOUNDS” (Hoffmann-La Roche Inc., priority 2019, published 2022).

pIC50: −log10 of the molar value.

By pIC50 is commonly meant the negative decadic logarithm of the IC50, by convention in mol/L. Low values mean a large IC50, high ones a small IC50.

The assay concerns the target T1, MAGL (Homo sapiens, UniProt Q99685).
T1 sequence (Q99685 1-303): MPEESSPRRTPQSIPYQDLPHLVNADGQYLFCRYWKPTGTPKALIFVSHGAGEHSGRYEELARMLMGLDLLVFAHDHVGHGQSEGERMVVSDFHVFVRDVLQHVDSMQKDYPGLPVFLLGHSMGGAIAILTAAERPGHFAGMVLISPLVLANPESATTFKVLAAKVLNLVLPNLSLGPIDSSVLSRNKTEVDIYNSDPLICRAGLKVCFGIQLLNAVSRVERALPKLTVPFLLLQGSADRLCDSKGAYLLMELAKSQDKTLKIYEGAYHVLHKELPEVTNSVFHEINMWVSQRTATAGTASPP
In words: 2-AG assay (MAGL inhibitory activity, hydrolysis of 2-arachidonoylglycerol followed by mass spectrometry). It counts as biochemical. The settings on record: 50 pM MAGL, 8 μM 2-arachidonoylglycerol, 15 min preincubation, 30 min incubation at RT. Here is the method: Compounds were profiled for MAGL inhibitory activity by determining the enzymatic activity by following the hydrolysis of the natural substrate 2-arachidonoylglycerol resulting in arachidonic acid, which can be followed by mass spectrometry. This assay is hereinafter abbreviated “2-AG assay”.
The 2-AG assay was carried out in 384 well assay plates (PP, Greiner Cat #784201) in a total volume of 20 μL. Compound dilutions were made in 100% DMSO (VWR Chemicals 23500.297) in a polypropylene plate in 3-fold dilution steps to give a final concentration range in the assay from 12.5 μM to 0.8 pM. 0.25 μL compound dilutions (100% DMSO) were added to 9 μL MAGL in assay buffer (50 mM TRIS (GIBCO, 15567-027), 1 mM EDTA (Fluka, 03690-100 ml), 0.01% (v/v) Tween. After shaking, the plate was incubated for 15 min at RT. To start the reaction, 10 μL 2-arachidonoylglycerol in assay buffer was added. The final concentrations in the assay was 50 pM MAGL and 8 μM 2-arachidonoylglyerol. After shaking and 30 min incubation at RT, the reaction was quenched by the addition of 40 μL of acetonitrile containing 4 μM of d8-arachidonic acid. The amount of arachidonic acid was traced by an online SPE system (Agilent Rapidfire) coupled to a triple quadrupole mass spectrometer (Agilent 6460). A C18 SPE cartridge (G9205A) was used in an acetonitrile/water liquid setup. The mass spectrometer was operated in negative electrospray mode following the mass transitions 303.1→259.1 for arachidonic acid and 311.1→267.0 for d8-arachidonic acid. The activity of the compounds was calculated based on the ratio of intensities [arachidonic acid/d8-arachidonic acid].
The molecule `O=C1CC[C@H]2CCN(C(=O)N3CCC(C(c4ccccc4)c4ccccc4)CC3)C[C@H]2N1` (racemic) [Example 10, rac-(4aS,8aS)-7-(4-Benzhydrylpiperidine-1-carbonyl)octahydro-1,7-naphthyridin-2(1H)-one] gave a pIC50 of 10.22.

For `O=C1CC[C@H]2CCN(C(=O)N3CC(OCc4ccc(C(F)(F)F)cc4F)C3)C[C@H]2N1` (racemic) [Example 11, rac-(4aS,8aS)-7-[3-[[2-Fluoro-4-(trifluoromethyl)phenyl]methoxy]azetidine-1-carbonyl]-1,3,4,4a,5,6,8,8a-octahydro-1,7-naphthyridin-2-one], the pIC50 is 8.51.

As for `O=C1CN[C@H]2CCN(C(=O)N3CC(OCc4ccc(C(F)(F)F)cc4F)C3)C[C@H]2N1` (racemic) [Example 12, rac-(4aR,8aS)-6-[3-[[2-Fluoro-4-(trifluoromethyl)phenyl]methoxy]azetidine-1-carbonyl]-1,2,4,4a,5,7,8,8a-octahydropyrido[3,4-b]pyrazin-3-one], the pIC50 was 7.14.

For the molecule `O=C1CC(O)[C@H]2CCN(C(=O)N3CC(OCc4ccc(C(F)(F)F)cc4F)C3)C[C@H]2N1` (mixture of isomers) [Example 18, rac-(4aS,8aS)-7-[3-[[2-fluoro-4-(trifluoromethyl)phenyl]methoxy]azetidine-1-carbonyl]-4-hydroxy-1,3,4,4a,5,6,8,8a-octahydro-1,7-naphthyridin-2-one], the pIC50 is 5.96.

Molecule `C[C@H]1CN(C(=O)N2CC(OCc3ccc(C(F)(F)F)cc3F)C2)C[C@H]2NC(=O)CO[C@@H]12` (relative stereo) [Example 1, rel-(4aR,8S,8aS)-6-[3-[[2-Fluoro-4-(trifluoromethyl)phenyl]methoxy]azetidine-1-carbonyl]-8-methyl-4,4a,5,7,8,8a-hexahydropyrido[4,3-b][1,4]oxazin-3-one] had a pIC50 of 8.36.

In turn, `O=C1CO[C@H]2[C@H](CN(C(=O)N3CC(OCc4ccc(C(F)(F)F)cc4F)C3)CC2(F)F)N1` (single isomer, unassigned) [Example 3] had a pIC50 of 7.95.

As to `O=C1CO[C@@H]2[C@@H](CN(C(=O)N3CC(OCc4ccc(C(F)(F)F)cc4F)C3)CC2(F)F)N1` (single isomer, unassigned) [Example 4], the pIC50 was 5.86.

The molecule `O=C1CO[C@H]2[C@H](CN(C(=O)N3CC(c4ccc(CC(F)(F)F)cc4)C3)CC2(F)F)N1` (single isomer, unassigned) [Example 5] gave a pIC50 of 8.59.

The molecule `O=C1CO[C@@H]2[C@@H](CN(C(=O)N3CC(c4ccc(CC(F)(F)F)cc4)C3)CC2(F)F)N1` (single isomer, unassigned) [Example 6] showed a pIC50 of 6.19.

Molecule `O=C1CN[C@H]2CCN(C(=O)N3CC(OCc4ccc(C(F)(F)F)cc4F)C3)C[C@H]2N1` (single isomer, unassigned) [Example 13, (4aR,8aS)- or (4aR,8aS)-6-[3-[[2-Fluoro-4-(trifluoromethyl)phenyl]methoxy]azetidine-1-carbonyl]-1,2,4,4a,5,7,8,8a-octahydropyrido[3,4-b]pyrazin-3-one] had a pIC50 of 6.80.

The molecule `O=C1CN[C@@H]2CCN(C(=O)N3CC(OCc4ccc(C(F)(F)F)cc4F)C3)C[C@@H]2N1` (single isomer, unassigned) [Example 14, (4aS,8aR)- or (4aS,8aR)-6-[3-[[2-Fluoro-4-(trifluoromethyl)phenyl]methoxy]azetidine-1-carbonyl]-1,2,4,4a,5,7,8,8a-octahydropyrido[3,4-b]pyrazin-3-one] gave a pIC50 of 5.84.

The molecule `CC1CN(C(=O)N2CC(OCc3ccc(C(F)(F)F)cc3F)C2)CC2NC(=O)COC12` [Example 2, rel-(4aS,8R,8aR)-6-[3-[[2-Fluoro-4-(trifluoromethyl)phenyl]methoxy]azetidine-1-carbonyl]-8-methyl-4,4a,5,7,8,8a-hexahydropyrido[4,3-b][1,4]oxazin-3-one] had a pIC50 of 6.93.

`O=C1COC2=C(CN(C(=O)N3CCC(Cc4ccc(C(F)(F)F)cc4)CC3)CC2)N1` [Example 7, 6-[4-[[4-(Trifluoromethyl)phenyl]methyl]piperidine-1-carbonyl]-4,5,7,8-tetrahydropyrido[4,3-b][1,4]oxazin-3-one] gave a pIC50 of 7.29.

The molecule `O=C(N1CCC(C(c2ccccc2)c2ccccc2)CC1)N1CCc2ccc(=O)[nH]c2C1` [Example 8, 7-(4-Benzhydrylpiperidine-1-carbonyl)-1,5,6,8-tetrahydro-1,7-naphthyridin-2-one] gave a pIC50 of 8.52.

`O=C(N1CCc2ccc(=O)[nH]c2C1)N1CC(OCc2ccc(C(F)(F)F)cc2F)C1` [Example 9, 7-[3-[[2-Fluoro-4-(trifluoromethyl)phenyl]methoxy]azetidine-1-carbonyl]-1,5,6,8-tetrahydro-1,7-naphthyridin-2-one]: the pIC50 was 7.84.

`O=C1CO[C@H]2CCN(C(=O)N3CC(OCc4ccc(C(F)(F)F)cc4F)C3)C[C@@]2(O)N1` [Example 16, (4aS,8aS)-6-[3-[[2-fluoro-4-(trifluoromethyl)phenyl]methoxy]azetidine-1-carbonyl]-4a-hydroxy-5,7,8,8a-tetrahydro-4H-pyrido[4,3-b][1,4]oxazin-3-one] had a pIC50 of 6.10.

On to `O=C1CSC2=C(CN(C(=O)N3CC(OCc4ccc(C(F)(F)F)cc4F)C3)CC2)N1` [Example 17, 6-[3-[[2-fluoro-4-(trifluoromethyl)phenyl]methoxy]azetidine-1-carbonyl]-4,5,7,8-tetrahydropyrido[4,3-b][1,4]thiazin-3-one], for which the pIC50 is 7.32.
